Patent US8877707B2, “Inhibitors of HCV NS5A” (Presidio Pharmaceuticals, Inc., priority 2010, dated 2014)

The molecules below were run on HCV genotype 1b replicon in Huh 7 cells (assay: HCV replicon assay (1b_Huh-Luc/Neo-ET cell line, luciferase readout)). Details: Hepatitis C virus, Huh-7; HCV 1b replicon; read-out: Inhibition of HCV genotype 1b.
Format: cell-based
Summary of the method: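 Huh 7 cells carrying a bicistronic genotype 1b luciferase replicon were treated with compound in triplicate the day after plating and incubated 72 h. Luciferase activity expressed as % of untreated control; EC50 from a four-parameter logistic fit, repeated several times.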

Q: Which EC50 does the source give for `COC(=O)N[C@H](C(=O)N1CCC[C@H]1CNC(=O)c1ccc(-c2ccc3cc(-c4cnc([C@@H]5CCCN5C(=O)[C@@H](NC(=O)OC)C(C)C)[nH]4)ccc3c2)cc1)C(C)C` [compound 565] here?
A: Its EC50 is < 1 nM.

Q: How did the EC50 turn out when `COC(=O)N[C@@H](C)C(=O)N1CCC[C@H]1C(=O)NCc1ccc(-c2ccc3cc(-c4cnc([C@@H]5CCCN5C(=O)[C@H](C)NC(=O)OC)[nH]4)ccc3c2)cc1` [compound 566] was run?
A: The EC50 was 10 to 999 nM.

Q: How did the EC50 turn out when `COC(=O)N[C@H](C(=O)N1CCC[C@H]1C(=O)NCc1ccc(-c2ccc3cc(-c4cnc([C@@H]5CCCN5C(=O)[C@@H](NC(=O)OC)C(C)C)[nH]4)ccc3c2)cc1)C(C)C` [compound 567] was run?
A: The EC50 was 10 to 999 nM.

Q: For `COC(=O)N[C@H](C(=O)N1CCC[C@H]1C(=O)NCc1ccc(-c2ccc3cc(-c4cnc([C@@H]5CCCN5C(=O)[C@@H](NC(=O)OC)[C@@H](C)OC)[nH]4)ccc3c2)cc1)[C@@H](C)OC` [compound 568], which EC50 is on record?
A: Its EC50 is 10 to 999 nM.

Q: With `COC(=O)N[C@H](C(=O)N1CCC[C@H]1C(=O)NCc1ccc(-c2ccc3cc(-c4cnc([C@@H]5CCCN5C(=O)[C@@H](NC(=O)OC)C5CCOCC5)[nH]4)ccc3c2)cc1)C1CCOCC1` [compound 569] as the molecule, how does the EC50 read?
A: The EC50 was < 1 nM.

Q: `COC(=O)N[C@@H](C)C(=O)N1CCC[C@H]1C(=O)Nc1ccc(-c2ccc3cc(-c4cnc([C@@H]5CCCN5C(=O)[C@H](C)NC(=O)OC)[nH]4)ccc3c2)cc1` [compound 570] was tested. Which EC50 did it give?
A: Its EC50 is 1 to 9.9 nM.

Q: For `COC(=O)N[C@H](C(=O)N1CCC[C@H]1C(=O)Nc1ccc(-c2ccc3cc(-c4cnc([C@@H]5CCCN5C(=O)[C@@H](NC(=O)OC)C(C)C)[nH]4)ccc3c2)cc1)C(C)C` [compound 571], which EC50 is on record?
A: Its EC50 is < 1 nM.

Q: Which EC50 does the source give for `COC(=O)N[C@H](C(=O)N1CCC[C@H]1CNC(=O)c1ccc(-c2ccc3cc(-c4cnc([C@@H]5CCCN5C(=O)[C@@H](NC(=O)OC)[C@@H](C)OC)[nH]4)ccc3c2)cc1)[C@@H](C)OC` [compound 572] here?
A: Its EC50 is < 1 nM.

Q: With `COC(=O)N[C@H](C(=O)N1CCC[C@H]1CNC(=O)c1ccc(-c2ccc3cc(-c4cnc([C@@H]5CCCN5C(=O)[C@@H](NC(=O)OC)C5CCOCC5)[nH]4)ccc3c2)cc1)C1CCOCC1` [compound 573] as the molecule, how does the EC50 read?
A: The EC50 was < 1 nM.

Q: `COC(=O)N[C@H](C(=O)N1CCC[C@H]1CNC(=O)c1ccc2cc(-c3ccc(-c4cnc([C@@H]5CCCN5C(=O)[C@@H](NC(=O)OC)C(C)C)[nH]4)cc3)ccc2c1)C(C)C` [compound 574] was tested. Which EC50 did it give?
A: The EC50 was < 1 nM.

Q: With `COC(=O)N[C@H](C(=O)N1CCC[C@H]1CNC(=O)c1ccc2cc(-c3ccc(-c4cnc([C@@H]5CCCN5C(=O)[C@@H](NC(=O)OC)[C@@H](C)OC)[nH]4)cc3)ccc2c1)[C@@H](C)OC` [compound 575] as the molecule, how does the EC50 read?
A: The EC50 was < 1 nM.

Q: For `COC(=O)N[C@@H](C(=O)N1CCC[C@H]1CNC(=O)c1ccc2cc(-c3ccc(-c4cnc([C@@H]5CCCN5C(=O)[C@H](NC(=O)OC)c5ccccc5)[nH]4)cc3)ccc2c1)c1ccccc1` [compound 577], which EC50 is on record?
A: Its EC50 is < 1 nM.

Q: Which EC50 does the source give for `COC(=O)N[C@H](C(=O)N1CCC[C@H]1C(=O)Nc1ccc(-c2ccc3cc(-c4cnc([C@@H]5CCCN5C(=O)[C@@H](NC(=O)OC)[C@@H](C)OC)[nH]4)ccc3c2)cc1)[C@@H](C)OC` [compound 578] here?
A: Its EC50 is < 1 nM.

Q: How did the EC50 turn out when `COC(=O)N[C@H](C(=O)N1CCC[C@H]1c1ncc(-c2ccc3cc(-c4cc5[nH]c([C@@H]6CCCN6C(=O)[C@@H](NC(=O)OC)C(C)C)nc5cc4F)ccc3c2)[nH]1)C(C)C` [compound 700] was run?
A: Its EC50 is < 1 nM.

Q: `COC(=O)N[C@H](C(=O)N1CCC[C@H]1c1ncc(-c2ccc3cc(-c4cc5[nH]c([C@@H]6CCCN6C(=O)[C@@H](NC(=O)OC)[C@@H](C)OC)nc5cc4F)ccc3c2)[nH]1)[C@@H](C)OC` [compound 701] was tested. Which EC50 did it give?
A: Its EC50 is < 1 nM.

Q: `COC(=O)N[C@H](C(=O)N1CCC[C@H]1c1ncc(-c2ccc3cc(-c4cc5[nH]c([C@@H]6CCCN6C(=O)[C@@H](NC(=O)OC)C6CCOCC6)nc5cc4F)ccc3c2)[nH]1)C1CCOCC1` [compound 702] was tested. Which EC50 did it give?
A: Its EC50 is < 1 nM.

Q: `CC[C@H](C)[C@H](NC(=O)OC)C(=O)N1CCC[C@H]1c1ncc(-c2ccc3cc(-c4cc5[nH]c([C@@H]6CCCN6C(=O)[C@@H](NC(=O)OC)[C@@H](C)CC)nc5cc4F)ccc3c2)[nH]1` [compound 703] was tested. Which EC50 did it give?
A: Its EC50 is < 1 nM.
